Experimental data as given in ChEMBL document CHEMBL4229543, “Squaramides as novel class I and IIB histone deacetylase inhibitors for topical treatment of cutaneous t-cell lymphoma” (Bioorg Med Chem Lett, 2018).
Converted amounts (≈) assume the structure as drawn.

Test system: not listed separately
Experiment: Clearance in human hepatocytes assessed per million cells at 1 uM after 5 to 90 mins by LC-MS/MS analysis
Format: ADME, cell-based, Hepatocyte
Details: read-out: CLH

Compound | hepatocyte CLint at 1 µM [µL/min/1e6 cells]
CC(C)C(CCCCC(=O)NO)Nc1c(Nc2ccc(C(F)(F)F)cc2)c(=O)c1=O (racemic) | 27
O=C(CCCCC(Cc1ccccc1)Nc1c(Nc2ccc(C(F)(F)F)cc2)c(=O)c1=O)NO (racemic) | 6.6
Cc1cc2ccc(Nc3c(NCCCCCC(=O)NO)c(=O)c3=O)cc2[nH]1 | < 5
Cc1ccc(Nc2c(NCCCCCC(=O)NO)c(=O)c2=O)cc1 | 7.2
O=C(CCCCCNc1c(Nc2ccc(C(F)(F)F)cc2)c(=O)c1=O)NO | 11
C[C@H](CCCCC(=O)NO)Nc1c(Nc2ccc3cc(C(F)(F)F)[nH]c3c2)c(=O)c1=O | 10
O=C(CCCCCCC(=O)Nc1ccccc1)NO [VORINOSTAT] | < 5
COc1ccc(Nc2c(NC(C)CCCCC(=O)NO)c(=O)c2=O)cc1 (racemic) | 7.1
Cc1ccc(Nc2c(NC(C)CCCCC(=O)NO)c(=O)c2=O)cc1 (racemic) | < 6.5
Cc1cccc([C@@H](C)Nc2c(NCCCCCC(=O)NO)c(=O)c2=O)c1 | < 5
O=C(CCCCCNc1c(NC2CCCCC2)c(=O)c1=O)NO | < 5

Other lines, results leading:

hepatocyte CLint at 1 µM [µL/min/1e6 cells] | Compound
< 5 | CC(C)(Nc1c(NCCCCCC(=O)NO)c(=O)c1=O)c1ccccc1
< 5 | O=C(CCCCNc1c(Nc2ccccc2)c(=O)c1=O)NO
< 4.8 | O=C(CCCCCNc1c(NCc2ccccc2)c(=O)c1=O)NO
< 5 | CC(CCCCC(=O)NO)Nc1c(Nc2ccccc2)c(=O)c1=O (racemic)
< 5 | O=C(CCCCCCNc1c(Nc2ccccc2)c(=O)c1=O)NO
< 5 | C[C@@H](Nc1c(NCCCCCC(=O)NO)c(=O)c1=O)c1ccccc1

Test system: not listed separately
Experiment: Solubility in PG/EtOH (96%) at 30 mg/mL after 24 hrs by UV-spectrometric method
Format: physicochemical
Details: 24 h

solubility [µM] | Compound
32000 (≈ 8460 µg/mL) | O=C(CCCCCCC(=O)Nc1ccccc1)NO [VORINOSTAT]

Same assay, conditions: PG/EtOH (96%)

Compound | solubility at 24 h [µM]
CC(C)C(CCCCC(=O)NO)Nc1c(Nc2ccc(C(F)(F)F)cc2)c(=O)c1=O (racemic) | 6300 (≈ 2690 µg/mL)
O=C(CCCCC(Cc1ccccc1)Nc1c(Nc2ccc(C(F)(F)F)cc2)c(=O)c1=O)NO (racemic) | 5700 (≈ 2710 µg/mL)
Cc1cc2ccc(Nc3c(NCCCCCC(=O)NO)c(=O)c3=O)cc2[nH]1 | 9100 (≈ 3370 µg/mL)
Cc1ccc(Nc2c(NCCCCCC(=O)NO)c(=O)c2=O)cc1 | 1800 (≈ 596 µg/mL)
O=C(CCCCCNc1c(Nc2ccc(C(F)(F)F)cc2)c(=O)c1=O)NO | 4700 (≈ 1810 µg/mL)
C[C@H](CCCCC(=O)NO)Nc1c(Nc2ccc3cc(C(F)(F)F)[nH]c3c2)c(=O)c1=O | 21000 (≈ 9210 µg/mL)
COc1ccc(Nc2c(NC(C)CCCCC(=O)NO)c(=O)c2=O)cc1 (racemic) | 11000 (≈ 3980 µg/mL)
Cc1ccc(Nc2c(NC(C)CCCCC(=O)NO)c(=O)c2=O)cc1 (racemic) | 4900 (≈ 1690 µg/mL)
Cc1cccc([C@@H](C)Nc2c(NCCCCCC(=O)NO)c(=O)c2=O)c1 | 82000 (≈ 29500 µg/mL)
O=C(CCCCCNc1c(NC2CCCCC2)c(=O)c1=O)NO | 8700 (≈ 2810 µg/mL)

Next, values leading:

solubility at 24 h [µM] | Compound
> 84000 | CC(C)(Nc1c(NCCCCCC(=O)NO)c(=O)c1=O)c1ccccc1
32000 (≈ 9710 µg/mL) | O=C(CCCCNc1c(Nc2ccccc2)c(=O)c1=O)NO
5700 (≈ 1890 µg/mL) | O=C(CCCCCNc1c(NCc2ccccc2)c(=O)c1=O)NO
46000 (≈ 15200 µg/mL) | CC(CCCCC(=O)NO)Nc1c(Nc2ccccc2)c(=O)c1=O (racemic)
1800 (≈ 596 µg/mL) | O=C(CCCCCCNc1c(Nc2ccccc2)c(=O)c1=O)NO
39000 (≈ 13500 µg/mL) | C[C@@H](Nc1c(NCCCCCC(=O)NO)c(=O)c1=O)c1ccccc1

Test system: not listed separately
Experiment: Solubility in pH 7.4 phosphate buffer solution at 100 uM after 24 hrs by HPLC method
Format: physicochemical
Details: buffer, pH 7.4, 24 h, 100 µM

solubility [µM] | Compound
< 1 | O=C(CCCCC(Cc1ccccc1)Nc1c(Nc2ccc(C(F)(F)F)cc2)c(=O)c1=O)NO (racemic)

Same assay, conditions: phosphate buffer, pH 7.4

Compound | solubility at 24 h, 100 µM [µM]
CC(C)C(CCCCC(=O)NO)Nc1c(Nc2ccc(C(F)(F)F)cc2)c(=O)c1=O (racemic) | 5.3 (≈ 2.27 µg/mL)
Cc1cc2ccc(Nc3c(NCCCCCC(=O)NO)c(=O)c3=O)cc2[nH]1 | 4.4 (≈ 1.63 µg/mL)
Cc1ccc(Nc2c(NCCCCCC(=O)NO)c(=O)c2=O)cc1 | 8.1 (≈ 2.68 µg/mL)
O=C(CCCCCNc1c(Nc2ccc(C(F)(F)F)cc2)c(=O)c1=O)NO | 4.5 (≈ 1.73 µg/mL)
C[C@H](CCCCC(=O)NO)Nc1c(Nc2ccc3cc(C(F)(F)F)[nH]c3c2)c(=O)c1=O | 10 (≈ 4.38 µg/mL)
O=C(CCCCCCC(=O)Nc1ccccc1)NO [VORINOSTAT] | 87 (≈ 23 µg/mL)
COc1ccc(Nc2c(NC(C)CCCCC(=O)NO)c(=O)c2=O)cc1 (racemic) | 85 (≈ 30.7 µg/mL)
Cc1ccc(Nc2c(NC(C)CCCCC(=O)NO)c(=O)c2=O)cc1 (racemic) | 83 (≈ 28.7 µg/mL)
Cc1cccc([C@@H](C)Nc2c(NCCCCCC(=O)NO)c(=O)c2=O)c1 | 89 (≈ 32 µg/mL)
O=C(CCCCCNc1c(NC2CCCCC2)c(=O)c1=O)NO | 91 (≈ 29.4 µg/mL)

The remaining lines, values ahead:

solubility at 24 h, 100 µM [µM] | Compound
88 (≈ 31.6 µg/mL) | CC(C)(Nc1c(NCCCCCC(=O)NO)c(=O)c1=O)c1ccccc1
87 (≈ 26.4 µg/mL) | O=C(CCCCNc1c(Nc2ccccc2)c(=O)c1=O)NO
75 (≈ 24.9 µg/mL) | O=C(CCCCCNc1c(NCc2ccccc2)c(=O)c1=O)NO
93 (≈ 30.8 µg/mL) | CC(CCCCC(=O)NO)Nc1c(Nc2ccccc2)c(=O)c1=O (racemic)
6 (≈ 1.99 µg/mL) | O=C(CCCCCCNc1c(Nc2ccccc2)c(=O)c1=O)NO
80 (≈ 27.6 µg/mL) | C[C@@H](Nc1c(NCCCCCC(=O)NO)c(=O)c1=O)c1ccccc1

Molecular target: Histone deacetylase 1 (Homo sapiens, UniProt Q13547)
Sequence (Q13547 whole entry): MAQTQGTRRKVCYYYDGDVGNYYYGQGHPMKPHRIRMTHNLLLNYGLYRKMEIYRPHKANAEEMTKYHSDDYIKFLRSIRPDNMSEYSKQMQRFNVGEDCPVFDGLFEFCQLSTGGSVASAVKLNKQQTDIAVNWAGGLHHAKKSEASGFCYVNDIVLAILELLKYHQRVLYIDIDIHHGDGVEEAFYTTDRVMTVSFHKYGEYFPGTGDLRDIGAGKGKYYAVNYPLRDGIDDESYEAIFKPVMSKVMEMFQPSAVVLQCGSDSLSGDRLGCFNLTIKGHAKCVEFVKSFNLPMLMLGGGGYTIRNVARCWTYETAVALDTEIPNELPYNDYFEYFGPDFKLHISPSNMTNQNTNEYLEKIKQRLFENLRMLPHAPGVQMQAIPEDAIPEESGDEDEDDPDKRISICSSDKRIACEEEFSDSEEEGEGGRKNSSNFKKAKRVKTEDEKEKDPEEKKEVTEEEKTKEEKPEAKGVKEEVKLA
Experiment: Inhibition of human recombinant HDAC1 using Fluor de Lys as substrate after 2 hrs by fluorescence method
Details: not given

Compound | Ki [nM]
CC(C)C(CCCCC(=O)NO)Nc1c(Nc2ccc(C(F)(F)F)cc2)c(=O)c1=O (racemic) | 12
O=C(CCCCC(Cc1ccccc1)Nc1c(Nc2ccc(C(F)(F)F)cc2)c(=O)c1=O)NO (racemic) | 1.9
Cc1cc2ccc(Nc3c(NCCCCCC(=O)NO)c(=O)c3=O)cc2[nH]1 | 0.27
Cc1ccc(Nc2c(NCCCCCC(=O)NO)c(=O)c2=O)cc1 | 0.057
O=C(CCCCCNc1c(Nc2ccc(C(F)(F)F)cc2)c(=O)c1=O)NO | 0.23
C[C@H](CCCCC(=O)NO)Nc1c(Nc2ccc3cc(C(F)(F)F)[nH]c3c2)c(=O)c1=O | 0.15
COc1ccc(Nc2c(NC(C)CCCCC(=O)NO)c(=O)c2=O)cc1 (racemic) | 0.27
Cc1ccc(Nc2c(NC(C)CCCCC(=O)NO)c(=O)c2=O)cc1 (racemic) | 0.097
Cc1cccc([C@@H](C)Nc2c(NCCCCCC(=O)NO)c(=O)c2=O)c1 | 11
O=C(CCCCCNc1c(NC2CCCCC2)c(=O)c1=O)NO | 1.4

Next, values leading:

Ki [nM] | Compound
11 | CC(C)(Nc1c(NCCCCCC(=O)NO)c(=O)c1=O)c1ccccc1
12 | O=C(CCCCNc1c(Nc2ccccc2)c(=O)c1=O)NO
7.3 | O=C(CCCCCNc1c(NCc2ccccc2)c(=O)c1=O)NO
0.69 | CC(CCCCC(=O)NO)Nc1c(Nc2ccccc2)c(=O)c1=O (racemic)
0.56 | O=C(CCCCCCNc1c(Nc2ccccc2)c(=O)c1=O)NO
4.8 | C[C@@H](Nc1c(NCCCCCC(=O)NO)c(=O)c1=O)c1ccccc1

Test system: HuT78
Experiment: Pro-apoptotic activity in human HUT78 cells after 18 hrs by caspase-Glo 3/7 assay
Format: functional, cell-based
Details: HuT78, 18 h

Compound | EC50 [nM]
CC(C)C(CCCCC(=O)NO)Nc1c(Nc2ccc(C(F)(F)F)cc2)c(=O)c1=O (racemic) | 280
O=C(CCCCC(Cc1ccccc1)Nc1c(Nc2ccc(C(F)(F)F)cc2)c(=O)c1=O)NO (racemic) | 38
Cc1cc2ccc(Nc3c(NCCCCCC(=O)NO)c(=O)c3=O)cc2[nH]1 | 28
Cc1ccc(Nc2c(NCCCCCC(=O)NO)c(=O)c2=O)cc1 | 1.7
O=C(CCCCCNc1c(Nc2ccc(C(F)(F)F)cc2)c(=O)c1=O)NO | 4
C[C@H](CCCCC(=O)NO)Nc1c(Nc2ccc3cc(C(F)(F)F)[nH]c3c2)c(=O)c1=O | 7.2
COc1ccc(Nc2c(NC(C)CCCCC(=O)NO)c(=O)c2=O)cc1 (racemic) | 12
Cc1ccc(Nc2c(NC(C)CCCCC(=O)NO)c(=O)c2=O)cc1 (racemic) | 5.6
Cc1cccc([C@@H](C)Nc2c(NCCCCCC(=O)NO)c(=O)c2=O)c1 | 160
O=C(CCCCCNc1c(NC2CCCCC2)c(=O)c1=O)NO | 84

Results, then the compound that gave them:

EC50 [nM] | Compound
1100 | CC(C)(Nc1c(NCCCCCC(=O)NO)c(=O)c1=O)c1ccccc1
290 | O=C(CCCCNc1c(Nc2ccccc2)c(=O)c1=O)NO
270 | O=C(CCCCCNc1c(NCc2ccccc2)c(=O)c1=O)NO
32 | CC(CCCCC(=O)NO)Nc1c(Nc2ccccc2)c(=O)c1=O (racemic)
26 | O=C(CCCCCCNc1c(Nc2ccccc2)c(=O)c1=O)NO
100 | C[C@@H](Nc1c(NCCCCCC(=O)NO)c(=O)c1=O)c1ccccc1
